# Measured values as given in patent US11046680B1, “Heteroaryl-substituted triazoles as APJ receptor agonists” (priority 2016, dated 2021).
# pEC50: −log10 of the molar value.
# Target: human APJ receptor (Homo sapiens (Human), UniProt P35414)
# Assay: biochemical
# Type: biochemical
# Conditions: [35S]GTPγS binding, CHO membranes expressing human APJ receptor; read-out: Activity hAPJ SPA EC50 IP
# Method: The human APJ receptor was cloned by polymerase chain reaction and the gene encoding the receptor was subcloned in pFLAG-CMV™-3 expression vector (Sigma, Saint Louis, Mo. USA) in-house at Amgen. A GTPγS binding assay was performed on membranes prepared from CHO cells stably expressing human APJ receptor. The optimum experimental conditions for the concentrations of GDP, MgCl2, and NaCl in the assay buffer were initially determined. […] Incubation was at RT for 90 min and the microplate was read using a ViewLux™ ultra HTS Microplate Imager (PerkinElmer, Inc.).
# Chain of human APJ receptor (P35414 whole entry): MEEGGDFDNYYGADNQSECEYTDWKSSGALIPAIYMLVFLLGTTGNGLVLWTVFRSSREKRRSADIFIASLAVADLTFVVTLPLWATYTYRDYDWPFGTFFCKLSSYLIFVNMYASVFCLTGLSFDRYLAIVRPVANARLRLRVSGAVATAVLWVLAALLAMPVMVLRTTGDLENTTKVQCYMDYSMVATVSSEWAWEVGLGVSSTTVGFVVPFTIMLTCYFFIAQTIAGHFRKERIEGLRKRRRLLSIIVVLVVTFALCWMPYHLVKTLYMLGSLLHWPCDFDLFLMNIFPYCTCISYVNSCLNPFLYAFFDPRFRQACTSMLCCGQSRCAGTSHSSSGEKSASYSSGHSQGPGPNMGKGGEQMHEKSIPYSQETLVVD
row,SMILES,pEC50
1,"COc1cccc(OC)c1-n1c(NS(=O)(=O)[C@@H](C)[C@H](OC)c2cnc(C)cn2)nnc1-c1cc(C)[nH]n1 [Example 348.0, (1R,2S)-N-(4-(2,6-dimethoxyphenyl)-5-(5-methyl-1H-pyrazol-3-yl)-4H-1,2,4-triazol-3-yl)-1-methoxy-1-(5-methyl-2-pyrazinyl)-2-propanesulfonamide]",8.37
2,"Cc1cnc([C@H](OC(C)C)[C@H](C)S(=O)(=O)Nc2nnc(-c3ccn(C)n3)n2-c2c(F)cccc2F)nc1 [Example 227.0, (1S,2S)-N-(4-(2,6-difluorophenyl)-5-(1-methyl-1H-pyrazol-3-yl)-4H-1,2,4-triazol-3-yl)-1-(1-methylethoxy)-1-(5-methyl-2-pyrimidinyl)-2-propanesulfonamide]",8.80
3,"Cn1ccc(-c2nnc(NS(=O)(=O)[C@@H]3C[C@@H](O)CN(c4ncc(F)cn4)C3)n2-c2c(F)cccc2F)n1 (single isomer, unassigned) [Example 300.0, (3R,5R)-N-(4-(2,6-difluorophenyl)-5-(1-methyl-1H-pyrazol-3-yl)-4H-1,2,4-triazol-3-yl)-1-(5-fluoro-2-pyrimidinyl)-5-hydroxy-3-piperidinesulfonamide or (3S,5R)-N-(4-(2,6-difluorophenyl)-5-(1-methyl-1H-pyrazol-3-yl)-4H-1,2,4-triazol-3-yl)-1-(5-fluoro-2-pyrimidinyl)-5-hydroxy-3-piperidinesulfonamide]",7.26
4,"CO[C@H]1CCC[C@@H](OC)C1n1c(NS(=O)(=O)[C@@H](C)[C@H](C)c2ncc(Cl)cn2)nnc1-c1cnn2ccccc12 (stereo partly drawn) [Example 442.0, (2S,3R)-3-(5-chloropyrimidin-2-yl)-N-(4-((1r,2R,6S)-2,6-dimethoxycyclohexyl)-5-(pyrazolo[1,5-a]pyridin-3-yl)-4H-1,2,4-triazol-3-yl)butane-2-sulfonamide]",6.72
5,"CCc1csc(-c2nnc(NS(=O)(=O)[C@H](C)Cc3ncc(F)cn3)n2-c2c(OC)cccc2OC)n1 (single isomer, unassigned) [Example 105.0, (R)-N-(4-(2,6-dimethoxyphenyl)-5-(4-ethylthiazol-2-yl)-4H-1,2,4-triazol-3-yl)-1-(5-fluoropyrimidin-2-yl)propane-2-sulfonamide or (S)-N-(4-(2,6-dimethoxyphenyl)-5-(4-ethylthiazol-2-yl)-4H-1,2,4-triazol-3-yl)-1-(5-fluoropyrimidin-2-yl)propane-2-sulfonamide]",8.85
6,"COCC(COC)n1c(NS(=O)(=O)[C@@H](C)[C@H](C)c2cnc(OC)cn2)nnc1-c1ccn(C)n1 [Example 453.0, (2S,3R)-N-(4-(1,3-dimethoxy-2-propanyl)-5-(1-methyl-1H-pyrazol-3-yl)-4H-1,2,4-triazol-3-yl)-3-(5-methoxy-2-pyrazinyl)-2-butanesulfonamide]",7.14
7,"COc1cccc(OC)c1-n1c(NS(=O)(=O)[C@H](C)[C@H](O)c2ncc(C)cn2)nnc1-c1nc(C)cs1 (single isomer, unassigned) [Example 314.0, (1R,2R)-N-(4-(2,6-dimethoxyphenyl)-5-(4-methylthiazol-2-yl)-4H-1,2,4-triazol-3-yl)-1-hydroxy-1-(5-methylpyrimidin-2-yl)propane-2-sulfonamide or (1S,2S)-N-(4-(2,6-dimethoxyphenyl)-5-(4-methylthiazol-2-yl)-4H-1,2,4-triazol-3-yl)-1-hydroxy-1-(5-methylpyrimidin-2-yl)propane-2-sulfonamide]",7.85
8,"COc1cccc(OC)c1-n1c(NS(=O)(=O)[C@@H](C)[C@H](OC)c2ncc(Cl)cn2)nnc1-c1n[nH]c2ccccc12 [Example 421.0, (1R,2S)-1-(5-chloropyrimidin-2-yl)-N-(4-(2,6-dimethoxyphenyl)-5-(1H-indazol-3-yl)-4H-1,2,4-triazol-3-yl)-1-methoxypropane-2-sulfonamide]",8.35
